The values that follow come from patent publication US20250357519A1, “APPLICATIONS OF O2-INSENSITIVE FORMATE DEHYDROGENASE” (UNIVERSITY OF MARYLAND, BALTIMORE, priority 2022, published 2025).

One experiment has as its target DvH-FDH2 (Nitratidesulfovibrio vulgaris (Desulfovibrio vulgaris Hildenborough), UniProt Q728X0). Type of experiment: biochemical.
The target of experiment [1] is T1, Desulfovibrio vulgaris Hildenborough (DvH) FDH2, recombinant Strep-tag II-tagged (FDH2^Rec), large subunit DVU2482 SEQ ID NO: 31, small subunit DVU2481 SEQ ID N (Nitratidesulfovibrio vulgaris, UniProt Q728X0).
T1 sequence (Q728X0 36-1003): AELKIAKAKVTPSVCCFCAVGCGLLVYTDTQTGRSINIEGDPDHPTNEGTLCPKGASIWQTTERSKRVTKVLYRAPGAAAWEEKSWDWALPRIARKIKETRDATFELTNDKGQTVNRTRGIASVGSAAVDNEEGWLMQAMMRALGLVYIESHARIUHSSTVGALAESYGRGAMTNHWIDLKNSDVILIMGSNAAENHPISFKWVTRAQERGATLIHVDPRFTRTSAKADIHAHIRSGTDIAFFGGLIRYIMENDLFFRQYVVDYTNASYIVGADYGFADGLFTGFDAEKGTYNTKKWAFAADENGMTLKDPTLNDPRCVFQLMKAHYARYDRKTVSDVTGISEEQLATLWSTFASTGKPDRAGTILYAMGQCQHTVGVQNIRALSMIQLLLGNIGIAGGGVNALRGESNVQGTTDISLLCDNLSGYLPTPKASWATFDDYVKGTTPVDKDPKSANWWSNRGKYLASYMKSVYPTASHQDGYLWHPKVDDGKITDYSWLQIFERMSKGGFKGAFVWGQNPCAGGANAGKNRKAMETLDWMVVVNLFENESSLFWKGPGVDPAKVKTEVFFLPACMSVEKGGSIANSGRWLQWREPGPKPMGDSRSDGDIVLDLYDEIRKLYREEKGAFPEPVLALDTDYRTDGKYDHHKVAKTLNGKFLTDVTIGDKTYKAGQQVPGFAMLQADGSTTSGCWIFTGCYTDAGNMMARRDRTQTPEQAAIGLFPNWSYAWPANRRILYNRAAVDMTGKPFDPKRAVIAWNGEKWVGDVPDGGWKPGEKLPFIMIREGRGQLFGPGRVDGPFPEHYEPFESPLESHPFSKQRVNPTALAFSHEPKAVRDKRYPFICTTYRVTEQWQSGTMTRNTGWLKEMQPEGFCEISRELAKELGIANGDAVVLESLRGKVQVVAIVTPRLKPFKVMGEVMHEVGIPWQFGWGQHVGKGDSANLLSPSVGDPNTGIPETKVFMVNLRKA
T1 sequence (Q728X1 1-260 partner): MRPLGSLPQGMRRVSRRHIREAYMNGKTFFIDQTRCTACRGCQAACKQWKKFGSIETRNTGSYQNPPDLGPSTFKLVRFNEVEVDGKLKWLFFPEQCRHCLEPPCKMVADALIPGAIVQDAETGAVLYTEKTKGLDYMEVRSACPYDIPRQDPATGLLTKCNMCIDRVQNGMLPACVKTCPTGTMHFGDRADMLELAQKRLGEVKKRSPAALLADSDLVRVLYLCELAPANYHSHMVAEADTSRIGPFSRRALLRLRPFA
The experiment is described as follows: Inhibition of PES/DCPIP reduction by DvH-FDH2. Format: biochemical. Details: some rows (FDH2^WT, da Silva et al.) are the native enzyme. The following applies: anaerobic and aerobic. The method, then:
FIG. 22. Effect of sodium azide on PES/DCPIP reduction by DvH-FDH2. Panel (A) illustrates raw anaerobic kinetics, Panel (B) illustrates data from Panel (A) converted to reduced DCPIP concentration, Panel (C) illustrates 4-parameter sigmoidal fit of Panel (B), Panel (D) illustrates aerobic raw traces, Panel (E) illustrates data from Panel (D) converted to reduced DCPIP concentration, and Panel (F) illustrates a 4-parameter sigmoidal fit of […]. IC50 values were in the range of 0.8 mM.
FIG. 23. Effect of sodium nitrate on PES/DCPTP reduction by DvH-FDH2. Panel (A) illustrates raw anaerobic kinetics, Panel (B) illustrates data from Panel (A) converted to reduced DCPTP concentration, Panel (C) illustrates raw aerobic kinetics, and Panel (D) illustrates data from Panel (C) converted to reduced DCPTP concentration.
To test this hypothesis, activity assays were independently pursued with the PES/DCPIP pair. As has been observed for other dehydrogenases^91, PES served as an efficient electron acceptor for DvH-FDH2 (FIG. 19(A)). […]
In this dye-linked assay, PES (Em,7=+65 mV) serves as the primary electron acceptor. […] Assays were performed using a UV-2600i spectrophotometer (Shimadzu Life Sciences) equipped with T2 Peltier/stirrer accessory (Quantum) and monitored at 600 nm. […]

For the compound `O=[N+]([O-])[O-].[Na+]` [nitrate, sodium nitrate], the “Inhibition of DvH-FDH2 compared with azide” value at DvH-FDH2 was “far less effective”. Also, the “inhibition relative to azide” value in experiment [1] is recorded as “far less effective”.
